Measurements as given in patent US6395896B2, “Pyridazine derivatives, manufacturing method and related composition” (Shiseido Co., Ltd., priority 1999, dated 2002).

What was measured:
[1] = Pigment stabilization effect (sequestering agent combination); design: key to Sunlight exposure (80 MJ) Appearance: A: No change; B: No almost change; C: Yes change; key to Sunlight exposure (80 MJ) ΔE: color difference ΔE in Lab space vs. color before sunlight exposure; conditions: photostabilizer 0, amounts wt %
Method: First of all, the photostabilization effect and appearance changes of a composition for each pigment were studied by the following evaluation formulation.
Each test sample was prepared. Observation of appearance changes (visual evaluation) and measurement of color difference (ΔE) were carried out for samples exposed to sunlight (around 80 MJ).
Color difference was measured by Lab coordinate system with spectrophotometer. Color difference was calculated based on the color before sunlight exposure. Namely, from the measured value (L1,a1,b1) before sunlight exposure, color difference (ΔE) was calculated by following formula.

[2] = Perfume stabilization effect (sequestering agent combination); design: key to Sunlight exposure (80 MJ) Smell evaluation: A: No change; B: No almost change; C: Yes change; conditions: sequestering agent 0.03 alone, photostabilizer 0, amounts wt %
Method: Next, for combinations with sequestering agent, photostabilization effect for each perfume was studied by the following evaluation formulation.
Each test sample was prepared. Smell change of samples exposed to sunlight (80 MJ) was observed (judgement by perfumier).

[3] = Drug stabilization effect (sequestering agent combination); design: key to Sunlight exposure (80 MJ) Appearance: A: No change; B: No almost change; C: Yes change; conditions: sequestering agent 0.03 alone, photostabilizer 0, amounts wt %
Method: Next, when combined with a sequestering agent, the photostabilization effect and appearance change of a composition for each drug was studied by the following evaluation formulation.
Each test sample was prepared. Appearance change of the samples exposed to sunlight (around 80 MJ) was observed (visual evaluation). Also, residual yield of a drug was measured by liquid chromatography.

[4] = colorant Blue No. 1 0.0001, sequestering agent 0.03 alone
[5] = colorant Green No. 3 0.0001, sequestering agent 0.03 alone
[6] = colorant Red No. 106 0.0001, sequestering agent 0.02 alone
[7] = colorant Red No. 213 0.0001, sequestering agent 0.05 alone
[8] = colorant Red No. 227 0.0001, sequestering agent 0.02 alone
[9] = colorant Red No. 401 0.001, sequestering agent 0.1 alone
[10] = colorant Yellow No. 5 0.001, sequestering agent 0.02 alone
[11] = colorant Yellow No. 203 0.001, sequestering agent 0.02 alone
[12] = colorants Red No. 227 0.0001 + Yellow No. 203 0.0001, sequestering agent 0.02 alone
[13] = colorants Red No. 401 0.0001 + Green No. 3 0.00001, sequestering agent 0.03 alone
[14] = colorants Yellow No. 203 0.0001 + Yellow No. 5 0.0001, sequestering agent 0.01 alone
[15] = drug 2-o-α-α-glucopyranosyl-L-ascorbic acid 2.0
[16] = drug Dibutylhydroxytoluene 0.01
[17] = drug Dipotassium glycyrrhizinate 0.05

Sodium metaphosphate
Sunlight exposure (80 MJ) Appearance [1, 4]: C | Sunlight exposure (80 MJ) ΔE [1, 4]: 8.02 | Sunlight exposure (80 MJ) Appearance [1, 5]: C | Sunlight exposure (80 MJ) ΔE [1, 5]: 2.02 | Sunlight exposure (80 MJ) Appearance [1, 6]: C | Sunlight exposure (80 MJ) ΔE [1, 6]: 2.88 | Sunlight exposure (80 MJ) Appearance [1, 7]: C | Sunlight exposure (80 MJ) ΔE [1, 7]: 3.71 | Sunlight exposure (80 MJ) Appearance [1, 8]: C | Sunlight exposure (80 MJ) ΔE [1, 8]: 1.37 | Sunlight exposure (80 MJ) Appearance [1, 9]: C | Sunlight exposure (80 MJ) ΔE [1, 9]: 7.07 | Sunlight exposure (80 MJ) Appearance [1, 10]: C | Sunlight exposure (80 MJ) ΔE [1, 10]: 1.77 | Sunlight exposure (80 MJ) Appearance [1, 11]: C | Sunlight exposure (80 MJ) ΔE [1, 11]: 2.74 | Sunlight exposure (80 MJ) Appearance [1, 12]: C | Sunlight exposure (80 MJ) ΔE [1, 12]: 3.01 | Sunlight exposure (80 MJ) Appearance [1, 13]: C | Sunlight exposure (80 MJ) ΔE [1, 13]: 4.23 | Sunlight exposure (80 MJ) Appearance [1, 14]: C | Sunlight exposure (80 MJ) ΔE [1, 14]: 1.44 | Sunlight exposure (80 MJ) Smell evaluation ([2]; natural perfume Jasmine oil 0.03): C | Sunlight exposure (80 MJ) Smell evaluation ([2]; natural perfume Musk oil 0.03): C | Sunlight exposure (80 MJ) Smell evaluation ([2]; natural perfume Orange oil 0.03): C | Sunlight exposure (80 MJ) Smell evaluation ([2]; perfume Fruity 0.03): C | Sunlight exposure (80 MJ) Smell evaluation ([2]; perfume Muguet 0.03): C | Sunlight exposure (80 MJ) Smell evaluation ([2]; synthetic perfume Lilial 0.03): C | Sunlight exposure (80 MJ) Smell evaluation ([2]; synthetic perfume Oranthiol 0.03): C | Sunlight exposure (80 MJ) Appearance [3, 15]: C | Sunlight exposure (80 MJ) Residual yield [%] [3, 15]: 85.2% | Sunlight exposure (80 MJ) Appearance [3, 16]: C | Sunlight exposure (80 MJ) Residual yield [%] [3, 16]: 54.7% | Sunlight exposure (80 MJ) Appearance [3, 17]: B | Sunlight exposure (80 MJ) Residual yield [%] [3, 17]: 85.8%
